Literature values in patent US9877930B2, “Topical ubiquinol oral supplement compositions with amorphous calcium phosphate” (Premier Dental Products Company, priority 2012, dated 2018).

Assays:
adult periodontitis = conditions: topical once weekly via syringe for six weeks, with mechanical debridement; sites that bled at day 0
[1] = 150 mg per day in a softgel, orally, within 28 days
[2] = test system: human monocytic celline THP-1; conditions: LPS-stimulated THP-1
periodontal disease = conditions: 150 mg capsule/day for two months
[3] = not given; remark: listed apart in the source

| SMILES | bleeding on probing at treated sites (adult periodontitis) | peak blood values [1] | time required to reach peak concentration (absorption from the gastrointestinal tract) | time to steady-state concentrations (oral treatment) | effect on inflammatory cytokines and chemokines in vitro [2] | effect on oral environment for periodontal disease (periodontal disease) | water solubility [3] |
| --- | --- | --- | --- | --- | --- | --- | --- |
| COC1=C(OC)C(=O)C(C/C=C(\C)CC/C=C(\C)CC/C=C(\C)CC/C=C(\C)CC/C=C(\C)CC/C=C(\C)CC/C=C(\C)CC/C=C(\C)CC/C=C(\C)CCC=C(C)C)=C(C)C1=O [CoQ10, ubiquinone] | no bleeding at six weeks |  |  |  |  |  |  |
| COc1c(O)c(C)c(C/C=C(\C)CC/C=C(\C)CC/C=C(\C)CC/C=C(\C)CC/C=C(\C)CC/C=C(\C)CC/C=C(\C)CC/C=C(\C)CC/C=C(\C)CCC=C(C)C)c(O)c1OC [UBIQUINOL] |  | 3.84 µg/mL | approximately 6 hours | within two weeks | anti-inflammatory effects | effective in improving oral environment for periodontal disease | less than 0.1 mg/ml |
